Measurements reported in patent US12612379B2, “Inhibitors of APOL1 and methods of using same” (Vertex Pharmaceuticals Incorporated, priority 2021, dated 2026).

Target: T1, APOL1 (tet-inducible transgenic APOL1 T-REx-HEK293 cell lines) (Homo sapiens, UniProt O14791)
T1 sequence (O14791 1-398 S342G/I384M): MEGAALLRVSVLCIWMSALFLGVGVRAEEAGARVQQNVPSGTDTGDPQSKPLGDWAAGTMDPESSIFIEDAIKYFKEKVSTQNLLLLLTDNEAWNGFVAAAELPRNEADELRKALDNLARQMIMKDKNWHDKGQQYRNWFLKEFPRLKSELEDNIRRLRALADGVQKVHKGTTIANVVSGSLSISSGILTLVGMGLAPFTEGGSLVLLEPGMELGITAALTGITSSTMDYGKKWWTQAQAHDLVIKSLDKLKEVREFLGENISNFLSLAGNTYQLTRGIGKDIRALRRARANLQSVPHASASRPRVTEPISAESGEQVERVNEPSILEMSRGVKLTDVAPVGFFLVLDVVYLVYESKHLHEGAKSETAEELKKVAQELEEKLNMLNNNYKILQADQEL
Assay: MultiTox-Fluor Multiplex Cytotoxicity Assay for APOL1 inhibitor properties
Assay type: cell-based
Settings: APOL1 induced with 50 ng/mL tet, 24 hours with compound, ratio of dead to live cells, top concentration 10 μM; APOL1 variant (G0/G1/G2) not stated; read-out: IP50 (nM) (i.e., IC50 for cell proliferation)
Protocol: The MultiTox-Fluor Multiplex Cytotoxicity Assay is a single-reagent-addition, homogeneous, fluorescence assay that measures the number of live and dead cells simultaneously in culture wells. The assay measures cell viability and cytotoxicity by detecting two distinct protease activities. The live-cell protease activity is restricted to intact viable cells and is measured using a fluorogenic, cell-permeant peptide glycyl-phenylalanylamino fluorocoumarin (GF-AFC) substrate. The substrate enters intact cells, where it is cleaved to generate a fluorescent signal proportional to the number of living cells. […] A second, cell-impermeant, fluorogenic peptide substrate (bis-AAF-R110 Substrate) is used to measure dead-cell protease that has been released from cells that have lost membrane integrity. A ratio of dead to live cells is used to normalize data.
Briefly, the tet-inducible transgenic APOL1 T-REx-HEK293 cell lines were incubated with 50 ng/mL tet to induce APOL1 in the presence of 3-(2-(4-fluorophenyl)-1H-indol-3-yl)-N-((3S,4R)-4-hydroxy-2-oxopyrrolidin-3-yl)propenamide at 10.03, 3.24, 1.13, 0.356, 0.129, 0.042, 0.129, 0.0045, 0.0015, 0.0005 μM in duplicate for 24 hours in a humidified 37° C. incubator. The MultiTox reagent was added to each well and placed back in the incubator for an additional 30 minutes. The plate was read on the EnVision plate reader. A ratio of dead to live cells was used to normalize, and data was imported, analyzed, and fit using Genedata Screener (Basel, Switzerland) software. Data was normalized using percent of control, no tet (100% viability), and 50 ng/mL tet treated (0% viability), and fit using Smart Fit. The reagents, methods, and complete protocol for the MultiTox assay are described below.
Human embryonic kidney (HEK293) cell lines containing a tet-inducible expression system (T-REx™; Invitrogen, Carlsbad, CA) and Adeno-associated virus site 1 pAAVS1-Puro-APOL1 G0 or pAAVS1-Puro-APOL1 G1 or pAAVS1-Puro-APOL1 G2 Clones G0 DC2.13, G1 DC3.25, and G2 DC4.44 were grown in a T-225 flask at ˜90% confluency in cell growth media (DMEM, 10% Tet-free FBS, 2 mM L-glutamine, 100 Units/mL penicillin-streptomycin, 5 μg/mL blasticidin S HCl, 1 μg/mL puromycin dihydrochloride). Cells were washed with DPBS and then trypsinized to dissociate from the flask. Media was used to quench the trypsin, cells were then pelleted at 200 g and resuspended in fresh cell assay media (DMEM, 2% Tet-free FBS, 2 mM L-glutamine, 100 Units/mL penicillin-streptomycin). Cells were counted and diluted to 1.17×10^6 cells/mL. 20 μL of cells (23,400/well) were dispensed in every well of a 384-well Poly-D-Lysine coated plate using the Multidrop dispenser. The plates were then incubated at room temperature for one hour.
Tetracycline is needed to induce APOL1 expression. 1 mg/mL tet stock in water was diluted to 250 ng/mL (5×) in cell assay media. 60 μL of cell assay media (no tet control) was dispensed in columns 1 and 24, and 60 μL of 5×tet in 384-PP-round bottom plate was dispensed in columns 2 to 23 with the Multidrop dispenser.
Assay ready plates from the Global Compound Archive were ordered using template 384_APOL1Cell_DR10n2_50 uM_v3. Compounds were dispensed at 200 nL in DMSO. The final top concentration was 10 μM with a 10 point 3-fold dilution in duplicate in the MultiTox assay.
20 μL was transferred from the 5×tet plate to the ARP and mixed, then 5 μL of 5×tet and the compounds were transferred to the cell plate and mixed using the Bravo. The cell plate was placed in the humidified 37° C. 5% CO2 incubator for 24 hours.
The MultiTox-Fluor Multiplex Cytotoxicity Assay was performed in accordance with the manufacturer's protocol. After cells were incubated with tet and compound for 24 hours, 25 μL of 1×MultiTox reagent was added to each well using the Multidrop dispenser; the plates were placed on a plate shaker (600 rpm) for 2 minutes, then centrifuged briefly and placed back in the 37° C. incubator for 30 minutes. […]

SMILES	IC50 [nM]
C[C@H]1C[C@@](O)(c2ccc3cn[nH]c3c2)C[C@@H](c2cn(C)nn2)N1 [Compound 52]	≤ 50
C[C@H]1C[C@@](O)(c2ccc3c(c2)OCC3)C[C@@H](c2cn(C)nn2)N1 [Compound 53]	≥ 500
C[C@H]1C[C@@](O)(c2ccc3cn(C)nc3c2)C[C@@H](c2cn(C)nn2)N1 [Compound 54]	≥ 500
C[C@H]1C[C@@](O)(c2ccc3c(c2)nnn3C)C[C@@H](c2cn(C)nn2)N1 [Compound 55]	≥ 500
C[C@H]1C[C@@](O)(c2ccc3c(cnn3C)c2)C[C@@H](c2cn(C)nn2)N1 [Compound 56]	≥ 500
C[C@H]1C[C@@](O)(c2ccc3nnn(C)c3c2)C[C@@H](c2cn(C)nn2)N1 [Compound 57]	≥ 500
C[C@H]1C[C@@](O)(c2ccc3cnn(C)c3c2)C[C@@H](c2cn(C)nn2)N1 [Compound 58]	≤ 50
Cc1nn(C)c2ccc([C@@]3(O)C[C@@H](c4cn(C)nn4)N[C@@H](C)C3)cc12 [Compound 59]	50 to 500
C[C@H]1C[C@@](O)(C2CCCCC2)C[C@@H](c2cn(C)nn2)N1 [Compound 60, (2S,4S,6S)-4-cyclohexyl-2-methyl-6-(1-methyltriazol-4-yl)piperidin-4-ol]	≥ 500
C[C@H]1C[C@@](O)(Cc2cccc(C(F)(F)F)c2)C[C@@H](c2cn(C)nn2)N1 [Compound 61, (2S,4S,6S)-2-methyl-6-(1-methyltriazol-4-yl)-4-[[3-(trifluoromethyl)phenyl]methyl]piperidin-4-ol]	≥ 500
CC1CC(O)(c2ccc(C(F)(F)F)cc2)CC(c2c[nH]nn2)N1 (stereo not shown) [Compound 62, 2-methyl-6-(1H-triazol-4-yl)-4-[4-(trifluoromethyl)phenyl]piperidin-4-ol]	≤ 50
C[C@H]1C[C@@](C#N)(c2ccc(Cl)cn2)C[C@@H](c2cn(C)nn2)N1 [Compound 63, (2S,4S,6S)-4-(5-chloropyridin-2-yl)-2-methyl-6-(1-methyl-1H-1,2,3-triazol-4-yl)piperidine-4-carbonitrile]	≥ 500
C[C@H]1C[C@@](C(N)=O)(c2ccc(Cl)cn2)C[C@@H](c2cn(C)nn2)N1 [Compound 64]	≥ 500
C[C@H]1C[C@@](CO)(c2ccc(C(F)(F)F)cc2)C[C@@H](c2cn(C)nn2)N1 [Compound 65, ((2S,4S,6S)-2-methyl-6-(1-methyl-1H-1,2,3-triazol-4-yl)-4-(4-(trifluoromethyl)phenyl)piperidin-4-yl)methanol]	50 to 500
C[C@H]1C[C@@H](c2ccc(C(F)(F)F)cc2)C[C@@H](c2cn(C)nn2)N1 [Compound 66, (2S,4R,6S)-2-methyl-6-(1-methyltriazol-4-yl)-4-[4-(trifluoromethyl)phenyl]piperidine]	50 to 500
C[C@H]1C[C@@](C(N)=O)(c2ccc(C(F)(F)F)cc2)C[C@@H](c2cn(C)nn2)N1 [Compound 67, (2S,4S,6S)-2-methyl-6-(1-methyl-1H-1,2,3-triazol-4-yl)-4-(4-(trifluoromethyl)phenyl)piperidine-4-carboxamide]	50 to 500
